From paper PMC10263119, “WSD-0922, a novel brain-penetrant inhibitor of epidermal growth factor receptor, promotes survival in glioblastoma mouse models” (Neuro-Oncology Advances, 2023) come the findings set out here.

Holding throughout (format): biochemical
Test [1] deals with T1, HER4 (Homo sapiens, UniProt Q15303).
T1 construct: gene ERBB4
Briefly: in vitro kinase inhibition, single concentration ([…]). Particulars: read-out: %Inhibition (1 μM WSD-0922).

For test [2], the target named is SRC (Homo sapiens, UniProt P12931). The test is described as above. Conditions: read-out: %Inhibition (1 μM WSD-0922).
In test [3] the target is LCK (Homo sapiens, UniProt P06239). Described as above. Particulars: read-out: %Inhibition (1 μM WSD-0922).
In test [4] the target is T2, EPHA1 (Homo sapiens, UniProt P21709).
T2 sequence (P21709 26-976): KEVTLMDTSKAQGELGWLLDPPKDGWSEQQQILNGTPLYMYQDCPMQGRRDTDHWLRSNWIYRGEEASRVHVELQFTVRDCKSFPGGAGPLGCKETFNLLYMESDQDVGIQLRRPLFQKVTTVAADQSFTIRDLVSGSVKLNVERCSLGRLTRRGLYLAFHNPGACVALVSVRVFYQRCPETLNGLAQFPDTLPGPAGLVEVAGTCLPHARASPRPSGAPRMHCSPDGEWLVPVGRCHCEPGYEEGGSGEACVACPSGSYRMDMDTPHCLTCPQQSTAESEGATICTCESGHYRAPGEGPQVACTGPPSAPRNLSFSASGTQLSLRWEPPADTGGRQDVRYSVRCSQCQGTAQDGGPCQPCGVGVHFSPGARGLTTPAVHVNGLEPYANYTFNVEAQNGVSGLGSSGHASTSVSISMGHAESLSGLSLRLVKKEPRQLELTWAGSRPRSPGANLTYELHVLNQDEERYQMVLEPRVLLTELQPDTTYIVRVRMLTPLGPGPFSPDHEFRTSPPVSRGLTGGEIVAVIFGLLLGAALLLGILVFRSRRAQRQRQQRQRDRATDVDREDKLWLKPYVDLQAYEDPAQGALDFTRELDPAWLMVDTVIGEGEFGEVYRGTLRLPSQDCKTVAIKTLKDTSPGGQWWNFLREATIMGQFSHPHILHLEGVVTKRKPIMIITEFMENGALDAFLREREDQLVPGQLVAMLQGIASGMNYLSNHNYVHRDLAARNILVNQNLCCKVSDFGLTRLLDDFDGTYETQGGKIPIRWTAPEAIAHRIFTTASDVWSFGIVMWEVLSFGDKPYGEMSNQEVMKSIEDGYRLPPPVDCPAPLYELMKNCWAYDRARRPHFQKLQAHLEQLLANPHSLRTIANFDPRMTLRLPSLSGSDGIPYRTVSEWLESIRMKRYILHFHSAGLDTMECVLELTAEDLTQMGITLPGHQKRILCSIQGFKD
The test is described as above. Conditions: read-out: %Inhibition (1 μM WSD-0922).

In test [5] the target is T3, LYNa (Homo sapiens, UniProt P07948).
T3 construct: gene LYN
Described as above. Particulars: read-out: %Inhibition (1 μM WSD-0922).

The target of test [6] is HCK (Homo sapiens, UniProt P08631). The test is described as above. Particulars: read-out: %Inhibition (1 μM WSD-0922).
Test [7] addresses EGFR (Homo sapiens, UniProt P00533). Briefly: cell-free in vitro kinase inhibition assay; kinetic data.

Broadly, the inhibition is the relative decrease from the control value, in per cent. In general, IC50 refers to the midpoint of a concentration-inhibition curve. Read a low IC50 as inhibition by little substance.

T3 sequence (P07948 2-512): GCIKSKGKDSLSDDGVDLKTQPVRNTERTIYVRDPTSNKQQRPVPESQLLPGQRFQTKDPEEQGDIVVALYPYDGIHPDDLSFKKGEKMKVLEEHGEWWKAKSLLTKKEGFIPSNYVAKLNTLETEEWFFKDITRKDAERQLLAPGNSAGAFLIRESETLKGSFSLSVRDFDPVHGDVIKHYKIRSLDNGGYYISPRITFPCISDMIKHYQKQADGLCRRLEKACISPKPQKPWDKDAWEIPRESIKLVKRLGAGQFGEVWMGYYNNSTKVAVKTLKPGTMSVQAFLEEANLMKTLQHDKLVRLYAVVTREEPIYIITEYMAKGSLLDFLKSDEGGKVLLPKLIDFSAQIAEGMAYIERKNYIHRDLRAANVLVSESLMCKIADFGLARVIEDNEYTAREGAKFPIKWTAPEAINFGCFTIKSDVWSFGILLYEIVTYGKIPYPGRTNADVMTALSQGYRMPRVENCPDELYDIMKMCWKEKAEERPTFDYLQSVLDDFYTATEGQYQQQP
Sequence of HCK (P08631 2-526): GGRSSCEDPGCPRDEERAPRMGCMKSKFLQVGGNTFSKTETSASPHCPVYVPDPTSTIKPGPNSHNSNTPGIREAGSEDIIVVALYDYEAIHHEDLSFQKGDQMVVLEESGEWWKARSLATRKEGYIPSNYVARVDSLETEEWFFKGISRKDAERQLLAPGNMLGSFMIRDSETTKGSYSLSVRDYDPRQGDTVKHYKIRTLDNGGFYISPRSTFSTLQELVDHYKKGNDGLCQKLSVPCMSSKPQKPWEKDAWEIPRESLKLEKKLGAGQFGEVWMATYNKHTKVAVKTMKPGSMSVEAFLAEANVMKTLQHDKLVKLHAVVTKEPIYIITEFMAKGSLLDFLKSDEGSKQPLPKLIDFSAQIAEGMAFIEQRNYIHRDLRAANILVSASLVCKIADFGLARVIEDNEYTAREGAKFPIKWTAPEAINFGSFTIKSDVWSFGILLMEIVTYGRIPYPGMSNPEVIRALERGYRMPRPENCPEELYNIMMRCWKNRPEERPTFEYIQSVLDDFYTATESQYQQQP
Sequence of EGFR (P00533 25-1210): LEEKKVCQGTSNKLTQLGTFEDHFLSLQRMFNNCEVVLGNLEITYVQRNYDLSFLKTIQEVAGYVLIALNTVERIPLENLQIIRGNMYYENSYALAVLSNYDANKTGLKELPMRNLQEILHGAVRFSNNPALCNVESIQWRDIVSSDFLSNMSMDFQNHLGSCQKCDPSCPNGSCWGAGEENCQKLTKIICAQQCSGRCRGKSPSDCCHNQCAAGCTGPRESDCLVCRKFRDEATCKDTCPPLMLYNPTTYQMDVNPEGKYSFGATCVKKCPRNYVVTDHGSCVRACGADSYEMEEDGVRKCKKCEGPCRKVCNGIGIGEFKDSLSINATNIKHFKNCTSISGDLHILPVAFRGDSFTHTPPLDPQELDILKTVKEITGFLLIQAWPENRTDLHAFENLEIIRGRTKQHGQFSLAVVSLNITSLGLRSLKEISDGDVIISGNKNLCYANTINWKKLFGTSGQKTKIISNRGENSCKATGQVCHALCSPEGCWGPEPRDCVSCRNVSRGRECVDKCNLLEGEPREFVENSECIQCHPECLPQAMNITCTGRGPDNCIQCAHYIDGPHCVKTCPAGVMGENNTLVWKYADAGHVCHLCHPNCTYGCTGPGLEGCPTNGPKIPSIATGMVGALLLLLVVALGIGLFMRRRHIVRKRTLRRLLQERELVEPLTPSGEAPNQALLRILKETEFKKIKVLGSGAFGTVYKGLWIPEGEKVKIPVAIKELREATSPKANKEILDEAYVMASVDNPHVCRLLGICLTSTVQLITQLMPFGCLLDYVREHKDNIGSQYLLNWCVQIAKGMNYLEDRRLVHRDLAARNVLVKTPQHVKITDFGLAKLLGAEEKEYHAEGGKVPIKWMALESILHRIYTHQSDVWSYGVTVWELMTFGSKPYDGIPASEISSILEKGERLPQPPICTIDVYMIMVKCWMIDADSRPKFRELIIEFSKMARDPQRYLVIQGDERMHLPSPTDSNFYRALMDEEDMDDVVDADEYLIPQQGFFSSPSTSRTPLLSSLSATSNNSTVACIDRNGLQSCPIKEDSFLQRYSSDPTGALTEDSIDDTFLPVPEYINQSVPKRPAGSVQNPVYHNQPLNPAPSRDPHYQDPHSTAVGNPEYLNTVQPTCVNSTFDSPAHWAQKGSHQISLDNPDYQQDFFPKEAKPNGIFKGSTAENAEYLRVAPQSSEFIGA
Sequence of LCK (P06239 2-509): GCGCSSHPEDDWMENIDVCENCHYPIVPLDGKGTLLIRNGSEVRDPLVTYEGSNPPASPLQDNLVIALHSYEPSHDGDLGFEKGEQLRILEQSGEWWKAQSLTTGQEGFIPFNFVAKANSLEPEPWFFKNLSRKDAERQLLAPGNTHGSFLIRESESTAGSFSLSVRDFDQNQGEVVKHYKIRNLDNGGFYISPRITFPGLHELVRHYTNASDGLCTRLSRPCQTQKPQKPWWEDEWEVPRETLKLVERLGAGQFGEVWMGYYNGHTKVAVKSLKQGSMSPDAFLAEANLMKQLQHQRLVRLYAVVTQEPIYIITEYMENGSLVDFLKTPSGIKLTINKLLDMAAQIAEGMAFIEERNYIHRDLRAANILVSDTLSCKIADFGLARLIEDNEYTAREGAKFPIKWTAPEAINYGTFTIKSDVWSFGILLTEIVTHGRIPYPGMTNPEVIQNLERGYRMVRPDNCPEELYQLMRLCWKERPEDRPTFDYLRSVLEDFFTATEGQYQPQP
Sequence of SRC (P12931 2-536): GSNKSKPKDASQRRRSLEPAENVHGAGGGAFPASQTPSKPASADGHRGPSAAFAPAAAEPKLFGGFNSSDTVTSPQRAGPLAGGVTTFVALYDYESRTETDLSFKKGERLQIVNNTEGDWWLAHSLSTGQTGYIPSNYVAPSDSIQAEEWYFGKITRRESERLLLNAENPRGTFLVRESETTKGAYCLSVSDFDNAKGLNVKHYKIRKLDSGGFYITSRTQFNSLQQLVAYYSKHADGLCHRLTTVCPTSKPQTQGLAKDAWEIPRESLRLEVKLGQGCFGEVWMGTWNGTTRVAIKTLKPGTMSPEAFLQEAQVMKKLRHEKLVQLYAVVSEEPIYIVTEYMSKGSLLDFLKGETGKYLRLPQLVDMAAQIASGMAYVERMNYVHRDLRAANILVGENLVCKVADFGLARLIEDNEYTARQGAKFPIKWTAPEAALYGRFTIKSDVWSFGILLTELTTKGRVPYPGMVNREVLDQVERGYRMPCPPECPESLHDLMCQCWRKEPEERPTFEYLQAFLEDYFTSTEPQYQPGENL
T1 sequence (Q15303 26-1308): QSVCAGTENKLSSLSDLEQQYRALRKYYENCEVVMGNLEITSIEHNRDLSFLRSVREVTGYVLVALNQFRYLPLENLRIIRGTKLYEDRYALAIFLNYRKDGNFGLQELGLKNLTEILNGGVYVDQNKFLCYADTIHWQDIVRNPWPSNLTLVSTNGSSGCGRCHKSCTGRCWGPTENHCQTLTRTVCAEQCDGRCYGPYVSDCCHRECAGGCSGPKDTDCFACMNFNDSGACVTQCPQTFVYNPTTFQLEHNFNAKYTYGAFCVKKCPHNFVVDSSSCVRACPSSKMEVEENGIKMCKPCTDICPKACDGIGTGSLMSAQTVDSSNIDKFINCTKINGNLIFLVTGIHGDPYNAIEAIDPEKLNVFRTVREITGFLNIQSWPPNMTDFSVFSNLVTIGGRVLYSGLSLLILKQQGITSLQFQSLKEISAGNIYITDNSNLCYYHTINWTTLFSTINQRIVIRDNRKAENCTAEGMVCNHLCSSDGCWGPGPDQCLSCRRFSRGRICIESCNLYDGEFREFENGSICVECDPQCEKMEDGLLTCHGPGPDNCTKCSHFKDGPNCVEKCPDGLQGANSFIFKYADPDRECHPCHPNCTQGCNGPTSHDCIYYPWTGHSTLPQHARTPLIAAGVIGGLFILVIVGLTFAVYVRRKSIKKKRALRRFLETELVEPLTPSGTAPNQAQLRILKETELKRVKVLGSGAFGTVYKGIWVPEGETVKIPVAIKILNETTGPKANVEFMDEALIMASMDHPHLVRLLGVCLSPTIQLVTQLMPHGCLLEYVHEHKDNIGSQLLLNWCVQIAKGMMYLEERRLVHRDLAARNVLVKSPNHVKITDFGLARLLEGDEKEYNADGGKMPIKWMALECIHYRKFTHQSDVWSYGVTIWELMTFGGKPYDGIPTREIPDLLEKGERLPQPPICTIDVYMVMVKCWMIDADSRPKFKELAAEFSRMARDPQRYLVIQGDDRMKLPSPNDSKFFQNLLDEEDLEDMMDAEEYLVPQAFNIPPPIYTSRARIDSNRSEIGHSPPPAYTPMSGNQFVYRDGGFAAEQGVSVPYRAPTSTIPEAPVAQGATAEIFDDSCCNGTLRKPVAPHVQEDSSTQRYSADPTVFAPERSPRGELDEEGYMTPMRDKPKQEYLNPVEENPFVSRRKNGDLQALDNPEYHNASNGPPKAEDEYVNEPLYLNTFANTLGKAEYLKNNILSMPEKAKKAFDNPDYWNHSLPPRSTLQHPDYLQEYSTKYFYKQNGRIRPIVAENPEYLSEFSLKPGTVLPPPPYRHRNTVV

Consider `C#Cc1cccc(Nc2ncnc3cc(OC)c(O[C@@H]4CCN(C)CC4(F)F)cc23)c1F` [WSD-0922], for which the inhibition at 1 µM turned out to be 69.8% in test [1]; 39.5% in test [2]; 46.2% in test [3]; 55.4% in test [4]; 70.9% in test [5]; 49.7% in test [6]. Further, the concentration for half-maximal inhibition (IC50) in test [7] amounted to 0.056 nM.
